Assay results from US12629348B2, “Method and composition for treating osteoarthritis” (Vireo Systems, Inc., priority 2013, dated 2026).

Key:
[1] = system: serum amyloid A; assay: Serum amyloid A (solid phase sandwich EIA) in OA canines; type: in vivo, canine; conditions: 36 mg/kg/day oral
Description: The double-blind study was performed on a total of 30 adult canines of various breeds in five different private practice clinics. Owner consent was obtained prior to participation in the study. Each clinic was responsible for enrolling 6 canines into the study. Inclusion criteria for the study consisted of clinical assessment and radiograph confirmation of OA in at least one joint and a score of 22 or greater on the Helsinki chronic pain index (“HCPI”). Use of NSAIDs or other dietary supplements for OA were allowed, provided the current treatment regimens had not been altered for a period of at least three months. […]
In addition to the standard blood chemistry profile, blood samples taken before and at the conclusion of the two-week trial period were analyzed for PGE2 and SAA. […] Both plasma and serum samples were centrifuged at 2000×g for 10 minutes and the plasma and serum supernatants removed and frozen at […] until analyzed for PGE2 and SAA using enzyme-linked immunosorbent assays (“HA”). […] Plasma samples were analyzed for PGE2 using the bicycle PGE2 competitive EIA kit purchased from Cayman Chemical (Ann Arbor, MI). The assay converts PGE2 metabolites into a stable derivative that is measured using EIA. Samples (100 μl) were analyzed in triplicate and PGE2 concentrations determined by use of standard curve. […]

[2] = system: cultured canine chondrocytes; assay: PGE2 release in cultured canine chondrocytes challenged with IL1b; type: cell-based; conditions: 100 μM, IL1b challenge, FIG. 3
Description: The study involved the use of cultured canine chondrocytes (i.e., cells within the joint that are activated during OA). The canine chondrocytes were subjected to an inflammatory challenge in the form of cytokine Interleukin 1 beta (“IL1b”). The canine chondrocytes were then treated with various anti-inflammatory compounds including Alpha-GEE; glucosamine; a TNFα receptor antagonist; and a NSAID (Rimadyl). Alpha-GEE was administered in concentrations ranging from 10 μM to 1000 μM. The resulting effects of the various treatments on both PGE2 release and TNFα release were examined.
Alpha-GEE, glucosamine, and Rimadyl were used in a concentration of 100 μM, while the TNFα inhibitor was used in a concentration of 1 μM. Based on all of the treatments examined (i.e., Alpha-GEE; glucosamine; NSAID (Rimadyl); and TNFα receptor antagonist), Alpha-GEE produced the most dramatic decrease in PGE2 at the early 4-hour time point. […] The reduction in PGE2 release at the early 4 hour time point was greater than that observed with the NSAID, Rimadyl, glucosamine, or TNFα receptor blocker. The maximal effect of Alpha-GEE on PGE2 release from chondrocytes was observed within 8 hours, where a 75% reduction in PGE2 release was observed.

[3] = system: TLR-3; assay: TLR expression in exposed cells (real time PCR or immunofluorescent staining); type: cell-based
Excerpt: (§1) In one embodiment, the anti-inflammatory agent may include ethyl (α-guanido-methyl) ethanoate (“Alpha-GEE”). […] Toll receptors act as a key part of our body's recognition mechanism and appear to be a major factor in the onset and/or progression of various medical indications including those that involve inflammation and pain. In particular, real time PCR or immunofluorescent staining of exposed cells was used to assess expression of toll-like receptor-2 (TLR-2), TLR-3, TLR-4, and TLR-7. […] Without being bound by any particular theory, the mechanism by which TLR expression seems to be altered involves decreased pro-inflammatory mediator production in the wake of exposure to Alpha-GEE.

[4] = system: TLR-4; assay: as above; type: cell-based
Excerpt: as §1

[5] = system: TLR-7; assay: as above; type: cell-based
Excerpt: as §1

[6] = system: toll-like receptor-2 (TLR-2); assay: as above; type: cell-based
Excerpt: as §1

[7] = molecular target: cyclooxygenase-1 (COX-1) (Homo sapiens, UniProt P23219); assay: Inhibition of cyclooxygenase-1 activity
cyclooxygenase-1 (COX-1), sequence (P23219 24-599, species assumed): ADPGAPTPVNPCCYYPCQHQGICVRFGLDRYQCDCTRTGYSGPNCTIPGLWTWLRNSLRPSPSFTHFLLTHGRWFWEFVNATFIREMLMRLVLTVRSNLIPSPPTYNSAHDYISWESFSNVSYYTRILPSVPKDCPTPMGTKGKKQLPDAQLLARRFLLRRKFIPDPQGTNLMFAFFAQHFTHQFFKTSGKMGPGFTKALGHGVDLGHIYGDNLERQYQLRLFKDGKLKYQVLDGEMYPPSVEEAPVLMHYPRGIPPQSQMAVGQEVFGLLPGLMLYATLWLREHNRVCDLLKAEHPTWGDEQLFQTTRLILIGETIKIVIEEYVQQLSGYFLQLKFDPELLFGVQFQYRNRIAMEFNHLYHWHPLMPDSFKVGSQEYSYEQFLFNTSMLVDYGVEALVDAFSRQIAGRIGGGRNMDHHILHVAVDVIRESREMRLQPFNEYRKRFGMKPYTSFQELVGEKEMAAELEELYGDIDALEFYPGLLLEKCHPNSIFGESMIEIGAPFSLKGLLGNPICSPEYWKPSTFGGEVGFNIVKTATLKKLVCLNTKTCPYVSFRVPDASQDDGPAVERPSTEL

[8] = molecular target: T1, cyclooxygenase-2 (COX-2) (Homo sapiens, UniProt P35354); assay: Inhibition of cyclooxygenase-2 activity
T1 sequence (P35354 18-604): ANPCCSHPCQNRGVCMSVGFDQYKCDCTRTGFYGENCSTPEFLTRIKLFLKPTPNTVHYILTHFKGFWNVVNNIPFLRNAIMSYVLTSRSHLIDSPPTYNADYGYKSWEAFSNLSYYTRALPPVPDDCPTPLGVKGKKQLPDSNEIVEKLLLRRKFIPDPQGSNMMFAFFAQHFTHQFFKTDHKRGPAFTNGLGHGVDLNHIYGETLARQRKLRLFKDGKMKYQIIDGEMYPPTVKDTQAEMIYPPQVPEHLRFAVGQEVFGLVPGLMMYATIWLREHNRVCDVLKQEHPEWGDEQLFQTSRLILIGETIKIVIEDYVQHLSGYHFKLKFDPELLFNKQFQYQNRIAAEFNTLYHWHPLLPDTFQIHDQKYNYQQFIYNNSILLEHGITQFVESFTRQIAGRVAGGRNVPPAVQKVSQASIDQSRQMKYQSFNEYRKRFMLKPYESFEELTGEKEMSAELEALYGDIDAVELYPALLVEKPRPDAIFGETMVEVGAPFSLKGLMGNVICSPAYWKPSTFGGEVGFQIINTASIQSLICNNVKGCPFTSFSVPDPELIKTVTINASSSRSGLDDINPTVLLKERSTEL

[9] = 1 μM (first of three values printed for '1 μM and 100 μM')
[10] = 100 μM (third of three values printed for '1 μM and 100 μM')
[11] = concentration not printed (second of three values printed for '1 μM and 100 μM')

inhibition of COX-1 activity ([7]; 0.1 μM): about 20%
inhibition of COX-1 activity [7, 9]: about 20%
inhibition of COX-1 activity [7, 10]: about 15%
concentration dependency of inhibition of COX-1 ([7]; 0.1-100 μM, FIG. 2): did not show a concentration dependency
inhibition of COX-1 activity [7, 11]: about 15%
inhibition of COX-2 activity ([8]; 0.1 μM): about 10%
inhibition of COX-2 activity [8, 9]: about 15%
inhibition of COX-2 activity [8, 10]: about 15%
concentration dependency of inhibition of COX-2 ([8]; 0.1-100 μM, FIG. 2): did not show a concentration dependency
inhibition of COX-2 activity [8, 11]: about 18%
Substance: ethyl (α-guanido-methyl) ethanoate [Alpha-GEE]
Serum Amyloid A concentration, post-trial ([1]; mean ± SD after two weeks, pre-trial 673 ± 869, p < 0.05 compared to placebo (1483 ± 1653)): 255 ± 221 ng/mL
SAA levels compared to placebo at the end of the study ([1]; two-week trial, 36 mg/kg/day): significantly lower
reduction in PGE2 release from canine chondrocytes ([2]; 4 hours): approximately 60%
reduction in PGE2 release from canine chondrocytes (maximal effect) ([2]; within 8 hours): 75%
expression of TLR-3 in cells [3]: increases expression
expression of TLR-4 in cells [4]: increases expression
expression of TLR-7 in cells [5]: increases expression
expression of TLR-2 in cells [6]: increases expression
